In EP1984353B1, “AURORA KINASE MODULATORS AND METHOD OF USE” (Amgen, Inc, priority 2006, dated 2007):
Where two headings read alike, the source gives them in different places.

Assays:
[1] = target: T1, AuroraA-TPX2 (Homo sapiens, UniProt O14965); assay: AuroraA-TPX2 Homogeneous Time Resolved Fluorescent (HTRF) kinase assay; format: biochemical; settings: average, read-out: AurA/TP X2_ IC50_IP (Avg)
T1 construct: 20 µL of AuroraA-TPX2 KD GST; GST
T1 sequence (O14965 133-383 limits assumed): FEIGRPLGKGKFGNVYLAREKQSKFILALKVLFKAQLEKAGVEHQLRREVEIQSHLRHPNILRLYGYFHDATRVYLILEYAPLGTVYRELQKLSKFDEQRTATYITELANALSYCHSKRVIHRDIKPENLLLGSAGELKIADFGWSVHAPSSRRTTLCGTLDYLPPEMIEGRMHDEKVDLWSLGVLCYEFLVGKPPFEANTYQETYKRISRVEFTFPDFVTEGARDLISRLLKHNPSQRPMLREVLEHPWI
T1 sequence (Q9ULW0 1-43 partner limits assumed): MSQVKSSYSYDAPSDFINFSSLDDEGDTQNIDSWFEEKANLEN
How it was run: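 HTRF read-out: europium anti-phosphoPLK antibody (0.02 nM) plus streptavidin-APC detect phosphorylated biotin-PLK after EDTA stop and overnight equilibration. Kinase step runs about 120 min with Aurora-A/TPX2, ATP and roughly 1 µM PLK peptide at pH 7.5 HEPES buffer with Mg2+ and DTT.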

[2] = target: T2, AuroraB (Homo sapiens, UniProt Q96GD4); assay: AuroraB Homogeneous Time Resolved Fluorescent (HTRF) kinase assay; format: biochemical
T2 construct: 20 µL of AuroraB FL His; His
How it was run: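 HTRF read-out: after EDTA stop and ~60 min with europium anti-phospho-H3 antibody and streptavidin-APC, 655/615 nm ratio reports phosphorylation. Reaction: 400 pM AuroraB FL His, 23 µM ATP (at Km(app)), 0.1 µM biotin-Histone H3 peptide, 50 mM HEPES pH 7.5, MgCl/MnCl, ~90 min.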

[3] = test system: phosphorylation of Histone H3; assay: HeLa cell 1-hour phospho-histone assay; format: cell-based; settings: Homo sapiens, HeLa, 1 h, HeLa cells
Method: HeLa cell 1-hour phospho-histone assay
The purpose of this assay is to test the inhibitory effect of Aurora compounds with respect to phosphorylation of Histone H3 in the cellular context. HeLa cells (9x10^4/well) are plated in black 96-well flat-bottom tissue culture plates and incubated for 40 hours prior to compound addition. Compounds are serially diluted in DMSO, followed by dilution into MEM containing […] HEPES; 10ul/well of diluted compounds are added to cells (0.5% DMSO final). Cells are incubated for 1 hour at 37 °C in 5% CO2. Cells are then fixed with 3.7% formaldehyde for 10 minutes, washed with wash buffer (1% goat serum and 0.1% Tween 20 in PBS), then permeabilized with 0.5% Triton X in PBS for 15 minutes. After washing with wash buffer, cells are incubated with primary antibody (Upstate #06-507 anti-phospho-histone (Ser 10) antibody (pHH3) for 1 hour at 10ug/ml. After 2 washes with wash buffer, cells are incubated with secondary antibody (Molecular Probes #A11034 goat anti-rabbit Alexa-488 for 1 hour at 1ug/ml + Hoechst 33342 nuclear dye at 1ug/ml (Molecular Probes). Cells are washed 2 times with wash buffer, and buffer replaced with PBS. Plates are scanned on the Cellomics Array Scan (6 fields, ~2000 cells/well) and % of cells that are pHH3 positive were calculated using the Cellomics algorithm.

[4] = average, given as class symbols, read-out: AurB_ _IC50_IP (Avg)
[5] = 1 hour, average, given as class symbols, read-out: pHH3 EC50_IP (Avg)
[6] = given as numbers, unit inferred
[7] = average, given as numbers, unit inferred, read-out: AurB_ _IC50_IP (Avg)
[8] = 1 hour, average, given as numbers, unit inferred, read-out: pHH3 EC50_IP (Avg)

T2 sequence (Q96GD4 whole entry): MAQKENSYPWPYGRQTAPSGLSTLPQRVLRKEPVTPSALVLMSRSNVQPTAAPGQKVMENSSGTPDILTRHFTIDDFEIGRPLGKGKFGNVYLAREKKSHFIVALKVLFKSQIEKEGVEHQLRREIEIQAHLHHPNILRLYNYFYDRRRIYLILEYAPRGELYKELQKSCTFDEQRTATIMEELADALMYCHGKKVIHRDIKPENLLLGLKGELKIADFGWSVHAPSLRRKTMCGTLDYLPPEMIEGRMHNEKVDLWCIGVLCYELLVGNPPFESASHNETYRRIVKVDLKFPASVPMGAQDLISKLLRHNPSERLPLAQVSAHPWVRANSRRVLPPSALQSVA

SMILES	IC50 ([1]; given as class symbols) [µM]	IC50 [2, 4] [µM]	EC50 [3, 5] [µM]	IC50 [1, 6] [µM]	IC50 [2, 7] [µM]	EC50 [3, 8] [µM]	IC50 ([2]; read-out: inhibitory activity (IC50) in the Aurora kinase B HTRF assay) [µM]	EC50 ([3]; 1 hour incubation, % of cells pHH3 positive, read-out: inhibitory activity (EC50) in the phospho-histone H3 assay) [µM]
Cc1cc(-c2ccccc2)nnc1Nc1ccc(Oc2ncccc2-c2c[nH]nc2N)cc1 [compound 302, N-(4-((3-(3-amino-1H-pyrazol-4-yl)-2-pyridinyl)oxy)phenyl)-4-methyl-6-phenyl-3-pyridazinamine]	≤ 0.1	≤ 0.1	0.5 to 2.5	–	–	–	–	–
CCN(CCO)CCCNc1nccc(-c2cccnc2Oc2ccc(Nc3nnc(-c4ccccc4)c4ccccc34)cc2)n1 [compound 349, 2-(ethyl(3-((4-(2-((4-((4-phenyl-1-phthalazinyl)amino)phenyl)oxy)-3-pyridinyl)-2-pyrimidinyl)amino)propyl)amino)ethanol]	0.1 to 0.5	≤ 0.1	0.1 to 0.5	–	–	–	–	–
Cc1cc(-c2ccccc2)nnc1Nc1ccc(Oc2ncccc2-c2ccnc3c2CC(=O)N3)cc1 [compound 282, 4-(2-((4-((4-methyl-6-phenyl-3-pyridazinyl)amino)phenyl)oxy)-3-pyridinyl)-1,3-dihydro-2H-pyrrolo[2,3-b]pyridin-2-one]	≤ 0.1	≤ 0.1	0.1 to 0.5	–	–	–	–	–
Cc1cc(-c2ccccc2)nnc1Nc1ccc(Oc2ncccc2-c2ccnc(NCCCN3CCN(C)CC3)n2)nc1 [compound 280, 4-methyl-N-(6-((3-(2-((3-(4-methyl-1-piperazinyl)propyl)amino)-4-pyrimidinyl)-2-pyridinyl)oxy)-3-pyridinyl)-6-phenyl-3-pyridazinamine]	≤ 0.1	≤ 0.1	0.1 to 0.5	–	–	–	–	–
Nc1nccc(-c2cccnc2Oc2ccc(Nc3nnc(-c4cccc(CCCO)c4)c4ccccc34)cc2)n1 [compound 344, 3-(3-(4-((4-((3-(2-amino-4-pyrimidinyl)-2-pyridinyl)oxy)phenyl)amino)-1-phthalazinyl)phenyl)-1-propanol]	≤ 0.1	≤ 0.1	≤ 0.1	–	–	–	–	–
Nc1nccc(-c2cccnc2Oc2ccc(Nc3nnc(-c4ccc(CO)cc4)c4ccccc34)cc2)n1 [compound 249, (4-(4-((4-((3-(2-amino-4-pyrimidinyl)-2-pyridinyl)oxy)phenyl)amino)-1-phthalazinyl)phenyl)methanol]	≤ 0.1	≤ 0.1	0.1 to 0.5	–	–	–	–	–
O=C1Cc2c(-c3cccnc3Oc3ccc(Nc4nnc(-c5ccccc5)c5ccccc45)cc3)ccnc2N1 [compound 281, 4-(2-((4-((4-phenyl-1-phthalazinyl)amino)phenyl)oxy)-3-pyridinyl)-1,3-dihydro-2H-pyrrolo[2,3-b]pyridin-2-one]	–	–	–	0.0204	0.0061	0.17	–	–
Cc1csc(-c2nnc(Nc3ccc(Oc4ncccc4-c4ccnc(N)n4)cc3)c(C)c2C)c1 [compound 259, N-(4-((3-(2-amino-4-pyrimidinyl)-2-pyridinyl)oxy)phenyl)-4,5-dimethyl-6-(4-methyl-2-thienyl)-3-pyridazinamine]	–	–	–	0.0059	0.0028	0.0417	–	–
Cc1cc(-c2ccccc2)nnc1Nc1ccc(Oc2ncccc2-c2ccnc(NCCCN3CCCCC3)n2)cc1 [compound 424, 4-methyl-6-phenyl-N-(4-((3-(2-((3-(1-piperidinyl)propyl)amino)-4-pyrimidinyl)-2-pyridinyl)oxy)phenyl)-3-pyridazinamine]	≤ 0.1	≤ 0.1	0.1 to 0.5	–	–	–	–	–
OCCN(CCO)CCCNc1nccc(-c2cccnc2Oc2ccc(Nc3nnc(-c4ccccc4)c4ccccc34)cc2)n1 [compound 341, 2,2'-((3-((4-(2-((4-((4-phenyl-1-phthalazinyl)amino)phenyl)oxy)-3-pyridinyl)-2-pyrimidinyl)amino)propyl)imino)diethanol]	0.1 to 0.5	≤ 0.1	0.1 to 0.5	–	–	–	–	–
Nc1nccc(-c2cccnc2Oc2ccc(Nc3nnc(-c4ccccc4)cc3O)cc2)n1 [compound 263, 3-((4-((3-(2-amino-4-pyrimidinyl)-2-pyridinyl)oxy)phenyl)amino)-6-phenyl-4-pyridazinol]	0.5 to 2.5	0.5 to 2.5	0.5 to 2.5	–	–	–	–	–
Nc1nccc(-c2cccnc2Oc2ccc(Nc3nnc(-c4cccc(CO)c4)c4ccccc34)cc2)n1 [compound 342, (3-(4-((4-((3-(2-amino-4-pyrimidinyl)-2-pyridinyl)oxy)phenyl)amino)-1-phthalazinyl)phenyl)methanol]	≤ 0.1	≤ 0.1	0.1 to 0.5	–	–	–	–	–
CN(C)Cc1ccc(-c2nnc(Nc3ccc(Oc4ncccc4-c4ccnc(N)n4)cc3)c3ccccc23)cc1 [compound 336, N-(4-((3-(2-amino-4-pyrimidinyl)-2-pyridinyl)oxy)phenyl)-4-(4-((dimethylamino)methyl)phenyl)-1-phthalazinamine]	0.5 to 2.5	0.1 to 0.5	0.5 to 2.5	–	–	–	–	–
Cc1cc(Br)cnc1Nc1ccc(Oc2ncccc2-c2ccncc2)cc1 [compound 264, N-(4-(3,4'-bipyridin-2-yloxy)phenyl)-5-bromo-3-methyl-2-pyridinamine]	–	0.5 to 2.5	0.5 to 2.5	–	–	–	–	–
CCN(CC)CCCNc1nccc(-c2cccnc2Oc2ccc(Nc3nnc(-c4ccccc4)cc3C)cc2)n1 [compound 426, N,N-diethyl-N'-(4-(2-((4-((4-methyl-6-phenyl-3-pyridazinyl)amino)phenyl)oxy)-3-pyridinyl)-2-pyrimidinyl)-1,3-propanediamine]	≤ 0.1	≤ 0.1	0.1 to 0.5	–	–	–	–	–
Cc1cc(-c2ccccc2)nnc1Nc1ccc(Oc2ncccc2-c2ccnc(NCCCCN(C)C)n2)cc1 [compound 423, N,N-dimethyl-N'-(4-(2-((4-((4-methyl-6-phenyl-3-pyridazinyl)amino)phenyl)oxy)-3-pyridinyl)-2-pyrimidinyl)-1,4-butanediamine]	≤ 0.1	≤ 0.1	0.1 to 0.5	–	–	–	–	–
CNc1nccc(-c2cccnc2Oc2ccc(Nc3nnc(-c4ccccc4)c4ccccc34)nc2)n1 [compound 248, N-(5-((3-(2-(methylamino)-4-pyrimidinyl)-2-pyridinyl)oxy)-2-pyridinyl)-4-phenyl-1-phthalazinamine]	–	–	–	0.149	0.011	0.465	–	–
Cc1csc(-c2nnc(Nc3ccc(Oc4ncccc4-c4ccnc(N)n4)cc3)c3ccccc23)c1 [compound 331, N-(4-((3-(2-amino-4-pyrimidinyl)-2-pyridinyl)oxy)phenyl)-4-(4-methyl-2-thienyl)-1-phthalazinamine]	–	≤ 0.1	≤ 0.1	–	–	–	–	–
c1ccc(-c2nnc(Nc3ccc(Oc4ncccc4-c4ccnc(NCC5CCNCC5)n4)cc3)c3ccccc23)cc1 [compound 335, 4-phenyl-N-(4-((3-(2-((4-piperidinylmethyl)amino)-4-pyrimidinyl)-2-pyridinyl)oxy)phenyl)-1-phthalazinamine]	0.5 to 2.5	0.1 to 0.5	0.5 to 2.5	–	–	–	–	–
Nc1n[nH]cc1-c1cccnc1Oc1ccc(Nc2nnc(-c3ccc(Cl)cc3)c3ccccc23)cc1 [compound 306, N-(4-((3-(3-amino-1H-pyrazol-4-yl)-2-pyridinyl)oxy)phenyl)-4-(4-chlorophenyl)-1-phthalazinamine]	≤ 0.1	≤ 0.1	0.1 to 0.5	–	–	–	–	–
CC(O)c1cccc(-c2nnc(Nc3ccc(Oc4ncccc4-c4ccnc(N)n4)cc3)c3ccccc23)c1 (stereo not drawn) [compound 346, 1-(3-(4-((4-((3-(2-amino-4-pyrimidinyl)-2-pyridinyl)oxy)phenyl)amino)-1-phthalazinyl)phenyl)ethanol]	≤ 0.1	≤ 0.1	0.1 to 0.5	–	–	–	–	–
Nc1[nH]ncc1-c1cccnc1Oc1ccc(Nc2nnc(-c3ccccc3)c3ccccc23)cc1 [Example 238, N-(4-((3-(5-amino-1H-pyrazol-4-yl)-2-pyridinyl)oxy)phenyl)-4-phenyl-1-phthalazinamine]	–	–	–	–	–	–	< 0.5	< 1
